According to ChEMBL document CHEMBL1130490, “The Role of 4-phosphonodifluoromethyl- and 4-phosphono-phenylalanine in the selectivity and cellular uptake of SH2 domain ligands” (Bioorg Med Chem Lett, 1997):
Where a SMILES comes first, the peptide text is derived from it. [ ]: non-standard residue; d: D form. pY = N[C@@H](Cc1ccc(OP(=O)(O)O)cc1)C(=O)O

Assays:
[1] = target: T1, Tyrosine-protein kinase ABL1 (Homo sapiens, UniProt P00519); assay: Radioligand displacement assay for the binding of [125I]Glu-Pro-Gln-pTyr-Glu-Glu-Ile-Pro-Ile-Tyr-Leu to ABL SH2 domain
[2] = target: T1, Tyrosine-protein kinase ABL1; assay: Inhibition of [35S]-labeled SH2-GST Abl binding to the phospho-PDGF receptor intracellular domain
[3] = species on record: Mus musculus; assay: Uptake rate for compound into Balbc3T3 cells normalized to 100 uM was measured; format: functional

T1 sequence (P00519 whole entry, the tested form may be a part): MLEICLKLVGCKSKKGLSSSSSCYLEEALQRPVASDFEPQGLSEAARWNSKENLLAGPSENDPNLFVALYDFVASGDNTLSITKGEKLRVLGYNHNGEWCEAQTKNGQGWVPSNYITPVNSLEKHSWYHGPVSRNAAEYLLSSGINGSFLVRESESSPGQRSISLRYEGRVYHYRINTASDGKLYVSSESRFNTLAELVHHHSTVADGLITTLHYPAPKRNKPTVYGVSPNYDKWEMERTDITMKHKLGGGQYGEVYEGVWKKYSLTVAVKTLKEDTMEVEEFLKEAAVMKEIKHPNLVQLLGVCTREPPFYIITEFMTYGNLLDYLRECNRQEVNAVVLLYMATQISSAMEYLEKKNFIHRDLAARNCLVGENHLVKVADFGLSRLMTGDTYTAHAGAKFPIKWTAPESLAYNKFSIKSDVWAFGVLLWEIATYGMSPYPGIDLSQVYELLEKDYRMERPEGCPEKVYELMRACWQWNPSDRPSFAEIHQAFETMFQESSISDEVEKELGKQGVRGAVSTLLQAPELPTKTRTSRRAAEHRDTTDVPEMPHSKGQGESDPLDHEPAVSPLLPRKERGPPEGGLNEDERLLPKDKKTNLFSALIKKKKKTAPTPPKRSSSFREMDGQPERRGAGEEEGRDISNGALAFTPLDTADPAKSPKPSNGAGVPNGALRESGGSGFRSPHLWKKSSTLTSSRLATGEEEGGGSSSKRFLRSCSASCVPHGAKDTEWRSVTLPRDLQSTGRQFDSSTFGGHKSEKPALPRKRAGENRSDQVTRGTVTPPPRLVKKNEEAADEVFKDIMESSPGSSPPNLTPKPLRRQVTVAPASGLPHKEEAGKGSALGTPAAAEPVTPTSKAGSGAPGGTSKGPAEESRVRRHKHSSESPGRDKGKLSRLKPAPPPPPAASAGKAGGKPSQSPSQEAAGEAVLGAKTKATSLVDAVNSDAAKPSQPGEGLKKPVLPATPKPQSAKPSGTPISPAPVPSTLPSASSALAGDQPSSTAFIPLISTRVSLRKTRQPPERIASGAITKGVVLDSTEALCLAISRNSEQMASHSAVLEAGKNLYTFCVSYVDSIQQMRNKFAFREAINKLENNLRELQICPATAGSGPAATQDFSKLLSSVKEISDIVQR

IC50 [1] [µM]	IC50 [2] [µM]	Compound	Uptake rate (nM min-1 cm**-2) [3]
7.9	15	CC[C@H](C)[C@H](NC(=O)[C@H](CCC(=O)O)NC(=O)[C@H](CCC(=O)O)NC(=O)[C@H](Cc1ccc(OP(=O)(O)O)cc1)NC(C)=O)C(=O)N[C@@H](CCC(=O)O)C(=O)O (Ac-[pY]EEIE-OH)	–
–	–	CCOP(=O)(OCC)C(F)(F)c1ccc(C[C@H](NC(C)=O)C(=O)N[C@@H](CCC(=O)OC(C)(C)C)C(=O)N(C)CCCC2CCCCC2)cc1	3.2
–	–	CCOP(=O)(OCC)C(F)(F)c1ccc(C[C@H](NC(C)=O)C(=O)N[C@@H](CCC(=O)O)C(=O)N(C)CCCC2CCCCC2)cc1	> 0.002
–	–	CCOP(=O)(OCC)c1ccc(C[C@H](NC(C)=O)C(=O)N[C@@H](CC)C(=O)N(C)CCCC2CCCCC2)cc1	0.092
–	–	CC[C@H](NC(=O)[C@H](Cc1ccc(P(=O)(OCOC(=O)C(C)(C)C)OCOC(=O)C(C)(C)C)cc1)NC(C)=O)C(=O)N(C)CCCC1CCCCC1	6.6
–	–	CC[C@H](NC(=O)[C@H](Cc1ccc(C(F)(F)P(=O)(O)OCOC(=O)C(C)(C)C)cc1)NC(C)=O)C(=O)N(C)CCCC1CCCCC1	0.01
